Results as given in US20250302815A1, “PROTEIN TYROSINE PHOSPHATASE TARGETING LIGANDS” (CALICO LIFE SCIENCES LLC, priority 2021, published 2025).

Columns and labels:
PTPN2 (B16F10.4 cells) = molecular target: T1, PTPN2 (B16F10.4 cells) (Mus musculus, UniProt Q06180); test: HiBiT Degradation B16F10.4 PTPN2; type: cell-based; details: 24.0 hours
T1 construct: HiBiT; host or cells: B16F10.4
T1 sequence (Q06180 1-406): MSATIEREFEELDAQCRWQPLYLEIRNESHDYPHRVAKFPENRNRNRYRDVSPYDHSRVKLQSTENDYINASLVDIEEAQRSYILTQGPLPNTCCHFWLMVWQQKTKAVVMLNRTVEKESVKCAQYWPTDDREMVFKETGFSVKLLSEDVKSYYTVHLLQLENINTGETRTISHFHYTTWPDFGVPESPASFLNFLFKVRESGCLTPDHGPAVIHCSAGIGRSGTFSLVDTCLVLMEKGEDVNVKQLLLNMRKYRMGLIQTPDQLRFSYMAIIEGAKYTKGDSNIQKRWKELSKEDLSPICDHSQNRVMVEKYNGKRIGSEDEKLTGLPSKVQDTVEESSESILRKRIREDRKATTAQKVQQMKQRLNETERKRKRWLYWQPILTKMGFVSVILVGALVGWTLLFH

[1] = molecular target: T2, PTPN2 (HiBIT-PTPN2 in 293T.109 cells) (Homo sapiens, UniProt P17706); test: HiBiT Degradation 293T.109 PTPN2 (Nano-Glo HiBiT Lytic Assay); type: cell-based; details: 24.0 hours
T2 construct: expressed in transfected cells; host or cells: 293T.109 (293T WT from ATCC)
T2 sequence (P17706 1-415): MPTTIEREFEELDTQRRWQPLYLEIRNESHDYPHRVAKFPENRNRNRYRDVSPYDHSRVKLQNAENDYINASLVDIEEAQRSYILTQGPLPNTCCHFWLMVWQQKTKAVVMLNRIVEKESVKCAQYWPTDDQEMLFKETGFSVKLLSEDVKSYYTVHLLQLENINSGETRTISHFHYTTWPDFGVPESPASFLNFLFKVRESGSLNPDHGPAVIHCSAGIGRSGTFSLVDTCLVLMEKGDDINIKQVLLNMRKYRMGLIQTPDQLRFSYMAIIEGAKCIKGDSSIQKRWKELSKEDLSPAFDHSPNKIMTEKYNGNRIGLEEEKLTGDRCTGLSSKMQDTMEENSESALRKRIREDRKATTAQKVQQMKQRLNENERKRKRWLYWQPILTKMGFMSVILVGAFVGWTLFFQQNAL
Procedure, shortened: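 Degradation read-out: lytic HiBiT luminescence after 24 h treatment (37 °C, 5% CO2) of 5000 293T cells per well expressing HiBiT-fused PTPN2 from an N-terminal tag. Dosing was 11 points, half-log steps down from 10 μM, in duplicate; vehicle-treated and no-reagent wells served as controls.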

| DC50 (PTPN2 (B16F10.4 cells)) [µM] | DC50 [1] [µM] | Compound |
| --- | --- | --- |
| 0.05 to 0.2 | 0.05 to 0.2 | CC1(C)C[C@@H](Nc2cccc(-c3sc(C(=O)O)c(OCC(=O)O)c3Cl)c2)CCN1S(=O)(=O)Cc1cccc(NC(=O)N2CCCN(c3ccc4c5c(cccc35)C(=O)N4C3CCC(=O)NC3=O)CC2)c1 (stereo partly drawn) [Example 163, 3-(carboxymethoxy)-4-chloro-5-(3-(((4S)-1-((3-(4-(1-(2,6-dioxopiperidin-3-yl)-2-oxo-1,2-dihydrobenzo[cd]indol-6-yl)-1,4-diazepane-1-carboxamido)benzyl)sulfonyl)-2,2-dimethylpiperidin-4-yl)amino)phenyl)thiophene-2-carboxylic acid] |
| 0.05 to 0.2 | < 0.05 | Cn1c(=O)n(C2CCC(=O)NC2=O)c2ccc(C3CCN(C(=O)Nc4cccc(CS(=O)(=O)N5CC[C@H](Nc6cccc(-c7sc(C(=O)O)c(OCC(=O)O)c7Cl)c6)CC56CC6)c4)CC3)cc21 (stereo partly drawn) [Example 190, 3-(carboxymethoxy)-4-chloro-5-(3-(((7S)-4-((3-(4-(1-(2,6-dioxopiperidin-3-yl)-3-methyl-2-oxo-2,3-dihydro-1H-benzo[d]imidazol-5-yl)piperidine-1-carboxamido)benzyl)sulfonyl)-4-azaspiro[2.5]octan-7-yl)amino)phenyl)thiophene-2-carboxylic acid] |
| 0.05 to 0.2 | 0.05 to 0.2 | CC(C)n1c(=O)n(C2CCC(=O)NC2=O)c2ccc(C3CCN(CC(=O)Nc4cccc(CS(=O)(=O)N5CC[C@H](Nc6cccc(-c7sc(C(=O)O)c(OCC(=O)O)c7Cl)c6)CC5(C)C)c4)CC3)cc21 (stereo partly drawn) [Example 204, 3-(carboxymethoxy)-4-chloro-5-(3-(((4S)-1-((3-(2-(4-(1-(2,6-dioxopiperidin-3-yl)-3-isopropyl-2-oxo-2,3-dihydro-1H-benzo[d]imidazol-5-yl)piperidin-1-yl)acetamido)benzyl)sulfonyl)-2,2-dimethylpiperidin-4-yl)amino)phenyl)thiophene-2-carboxylic acid] |
| 0.05 to 0.2 | 0.05 to 0.2 | CC1(C)C[C@@H](Nc2cccc(-c3sc(C(=O)O)c(OCC(=O)O)c3Cl)c2)CCN1S(=O)(=O)Cc1cccc(NC(=O)N2CCC(Oc3cccc4c3CN(C3CCC(=O)NC3=O)C4=O)CC2)c1 (some centres unmarked) [Example 72] |
| 0.05 to 0.2 | ≥ 1 | Cn1c(=O)n(C2CCC(=O)NC2=O)c2ccc([C@@H]3CN(C(=O)Nc4cccc(CS(=O)(=O)N5CC[C@H](Nc6cccc(-c7sc(C(=O)O)c(OCC(=O)O)c7Cl)c6)CC5(C)C)c4)CC[C@H]3F)cc21 (stereo partly drawn) [Example 213, 3-(carboxymethoxy)-4-chloro-5-[3-[[(4S)-1-[[3-[[(3R,4R)-3-[1-(2,6-dioxo-3-piperidyl)-3-methyl-2-oxo-benzimidazol-5-yl]-4-fluoro-piperidine-1-carbonyl]amino]phenyl]methylsulfonyl]-2,2-dimethyl-4-piperidyl]amino]phenyl]thiophene-2-carboxylic acid] |
| 0.05 to 0.2 | 0.2 to 1 | Cn1c(=O)n(C2CCC(=O)NC2=O)c2ccc(C3CCCN(C(=O)Nc4cccc(CS(=O)(=O)N5CC[C@H](Nc6cccc(-c7sc(C(=O)O)c(OCC(=O)O)c7Cl)c6)CC5(C)C)c4)C3)cc21 (stereo partly drawn) [Example 203, 3-(carboxymethoxy)-4-chloro-5-[3-[[(4S)-1-[[3-[[3-[1-(2,6-dioxo-3-piperidyl)-3-methyl-2-oxo-benzimidazol-5-yl]piperidine-1-carbonyl]amino]phenyl]methylsulfonyl]-2,2-dimethyl-4-piperidyl]amino]phenyl]thiophene-2-carboxylic acid] |
| 0.05 to 0.2 | 0.05 to 0.2 | CC1(C)C[C@@H](Nc2cccc(-c3sc(C(=O)O)c(OCC(=O)O)c3Cl)c2)CCN1S(=O)(=O)Cc1cccc(NCCNCCCc2ccc3c4c(cccc24)C(=O)N3C2CCC(=O)NC2=O)c1 (some centres unmarked) [Example 201] |
